The target in this experiment is T1, Aromatase (Homo sapiens, UniProt P11511).
T1 sequence (P11511 whole entry): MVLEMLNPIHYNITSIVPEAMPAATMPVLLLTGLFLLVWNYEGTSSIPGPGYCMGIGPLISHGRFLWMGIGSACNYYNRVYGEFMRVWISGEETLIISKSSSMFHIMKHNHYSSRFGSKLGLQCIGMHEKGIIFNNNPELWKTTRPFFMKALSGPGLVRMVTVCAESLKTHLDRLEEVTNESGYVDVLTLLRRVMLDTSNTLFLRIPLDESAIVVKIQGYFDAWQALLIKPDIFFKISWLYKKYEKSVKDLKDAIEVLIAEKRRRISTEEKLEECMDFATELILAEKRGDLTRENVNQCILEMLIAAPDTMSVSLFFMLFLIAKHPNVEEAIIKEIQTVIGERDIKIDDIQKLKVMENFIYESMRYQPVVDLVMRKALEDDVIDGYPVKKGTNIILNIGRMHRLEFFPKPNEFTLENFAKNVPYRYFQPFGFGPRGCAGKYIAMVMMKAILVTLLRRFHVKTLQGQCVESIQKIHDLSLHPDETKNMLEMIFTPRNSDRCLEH
The experiment can be described thus: Inhibition of recombinant human aromatase using 7-methoxy-trifluoromethylcoumarin as substrate incubated for 30 mins by fluorescence microplate reader analysis.

Results on 13 molecules are retold here after ChEMBL document CHEMBL4477276, “Synthesis and aromatase inhibitory evaluation of 4-N-nitrophenyl substituted amino-4H-1,2,4-triazole derivatives” (Bioorg Med Chem, 2016).

What is called IC50 is the concentration needed to halve the response being measured. Consider `O=[N+]([O-])c1ccc(N(Cc2cccc(C(F)(F)F)c2)n2cnnc2)cc1Br`, for which the half-maximal inhibitory concentration (IC50) was found to be 17.4 nM.

For `O=[N+]([O-])c1ccc(N(Cc2ccc(C(F)(F)F)cc2)n2cnnc2)cc1Br`, the IC50 came out at 43.6 nM.

As to `O=[N+]([O-])c1ccc(N(Cc2ccccc2)n2cnnc2)cc1Br`, the IC50 was found to be 39.8 nM.

As for `N#Cc1cccc(CN(c2ccc([N+](=O)[O-])c(-c3ccccc3)c2)n2cnnc2)c1`, the IC50 turned out to be 73.2 nM.

Turning to `O=[N+]([O-])c1ccc(Nn2cnnc2)cc1Br`, the IC50 is 90.7 nM.

Consider `O=[N+]([O-])c1ccc(N(Cc2cccc(C(F)(F)F)c2)n2cnnc2)cc1-c1ccccc1`, for which the IC50 was determined as 17.4 nM.

For `O=[N+]([O-])c1ccc(N(Cc2ccc(C(F)(F)F)cc2)n2cnnc2)cc1-c1ccccc1`, the IC50 came to 14.5 nM.

Consider `O=[N+]([O-])c1cccc(CN(c2ccc([N+](=O)[O-])c(-c3ccccc3)c2)n2cnnc2)c1`, for which the IC50 was found to be 19.7 nM.

For `N#Cc1ccccc1CN(c1ccc([N+](=O)[O-])c(Br)c1)n1cnnc1`, the 50% inhibitory concentration (IC50) was determined as 58.8 nM.

`N#Cc1cccc(CN(c2ccc([N+](=O)[O-])c(Br)c2)n2cnnc2)c1`: the half-inhibitory concentration (IC50) was 57.6 nM.

On to `O=[N+]([O-])c1ccc(N(Cc2ccc(Cl)cc2)n2cnnc2)cc1Br`, for which the half-inhibitory concentration (IC50) was determined as 9.02 nM.

On to `O=[N+]([O-])c1cccc(CN(c2ccc([N+](=O)[O-])c(Br)c2)n2cnnc2)c1`, for which the IC50 is 12.1 nM.

Turning to `O=[N+]([O-])c1ccc(N(Cc2ccccc2)n2cnnc2)cc1-c1ccccc1`, the IC50 amounted to 30.2 nM.
